Measured values from BigSolDB 2.1.

## O=C(O)c1ccccc1
In chloroform, 278.15 K
  solubility (mole fraction): 0.074
In chloroform, 283.15 K
  solubility (mole fraction): 0.086
In chloroform, 293.15 K
  solubility (mole fraction): 0.114
In chloroform, 303.15 K
  solubility (mole fraction): 0.151
In chloroform, 313.15 K
  solubility (mole fraction): 0.196
In chloroform, 323.15 K
  solubility (mole fraction): 0.253
In cyclohexane, 283.15 K
  solubility (mole fraction): 0.006
In cyclohexane, 293.15 K
  solubility (mole fraction): 0.009
In cyclohexane, 303.15 K
  solubility (mole fraction): 0.015
In cyclohexane, 313.15 K
  solubility (mole fraction): 0.025
In cyclohexane, 323.15 K
  solubility (mole fraction): 0.039
In ethanol, 278.15 K
  solubility (mole fraction): 0.128
In ethanol, 283.15 K
  solubility (mole fraction): 0.139
In ethanol, 293.15 K
  solubility (mole fraction): 0.166
In ethanol, 303.15 K
  solubility (mole fraction): 0.196
In ethanol, 313.15 K
  solubility (mole fraction): 0.234
In ethanol, 323.15 K
  solubility (mole fraction): 0.276
In n-heptane, 278.15 K
  solubility (mole fraction): 0.005
In n-heptane, 283.15 K
  solubility (mole fraction): 0.006
In n-heptane, 293.15 K
  solubility (mole fraction): 0.01
In n-heptane, 303.15 K
  solubility (mole fraction): 0.015
In n-heptane, 313.15 K
  solubility (mole fraction): 0.022
In n-heptane, 323.15 K
  solubility (mole fraction): 0.033
In n-pentane, 278.15 K
  solubility (mole fraction): 0.004
In n-pentane, 283.15 K
  solubility (mole fraction): 0.005
In n-pentane, 293.15 K
  solubility (mole fraction): 0.007
In n-pentane, 303.15 K
  solubility (mole fraction): 0.011
In toluene, 278.15 K
  solubility (mole fraction): 0.035
In toluene, 283.15 K
  solubility (mole fraction): 0.043
In toluene, 293.15 K
  solubility (mole fraction): 0.062
In toluene, 303.15 K
  solubility (mole fraction): 0.089
In toluene, 313.15 K
  solubility (mole fraction): 0.128
In toluene, 323.15 K
  solubility (mole fraction): 0.178
